This note sets out measurements from patent publication US12458643B2, “Antidepressant/anxiolytic drug in which PAC1 receptor antagonist is used” (KAGOSHIMA UNIVERSITY, priority 2020, dated 2025).

Assay type in all cases: in vivo, mouse
Test [1] concerns single-restraint stress mice. The test is described as follows: Single-restraint stress-induced anxiety-like behavior, light-dark test. The settings on record: 30 mg/kg i.p. 30 min before 30 min restraint; 10 min test. As to the method:
Male C57BL/6J mice (8 to 12 weeks old) were acclimatized to a laboratory (illuminance: 330 lx) for 60 minutes. Then, a vehicle (10% DMSO solution; dissolved in saline; n=9), PA-8 (30 mg/kg; n=9) or PA-81004 (30 mg/kg; n=10) was intraperitoneally administered thereto (0.1 mL/10 g). After a lapse of 30 minutes after administration, restraint stress (stress caused by holding the mice in tubes of 2.8 cm in diameter with a hole for breathing) was applied thereto for 30 minutes. The light-dark test (10 min) was conducted from immediately after the completion of restraint. Mice that freely behaved in a home cage for 30 minutes without being held and without accessing water and food were used as a control (n=12). The results are shown in FIG. 10 (A: time spent in the light box, B: the number of transitions between the light and dark boxes; light box illuminance: 330 lx). The data was indicated by mean±standard error. **P<0.01, *P<0.05 (One-way ANOVA followed by Tukey-Kramer test). […] Male C57BL/6J mice (8 to 12 weeks old) were acclimatized to a laboratory (illuminance: 330 lx) for 60 minutes. Then, a vehicle (10% DMSO solution; dissolved in saline; n=11), PA-9 (30 mg/kg; n=8) or PA-915 (30 mg/kg; n=9) was intraperitoneally administered thereto (0.1 mL/10 g). After a lapse of 30 minutes after administration, restraint stress (stress caused by holding the mice in tubes of 2.8 cm in diameter with a hole for breathing) was applied thereto for 30 minutes. The light-dark test (10 min) was conducted from immediately after the completion of restraint. Mice that freely behaved in a home cage for 30 minutes without being held and without accessing water and food were used as a control (n=11). The results are shown in FIG. 12 (A: time spent in the light box, B: the number of transitions between the light and dark boxes; light box illuminance: 330 lx). The data was indicated by mean±standard error. **P<0.01, *P<0.05 (One-way ANOVA followed by Tukey-Kramer test).

In test [2] the test system is normal mice. Description: Forced swim test in normal mice. The settings on record: normal male C57BL/6J mice, 30 mg/kg i.p., 60 min after administration, 6 min swim. As to the method: The effects of PA-8 and PA-81004 on normal mice were evaluated by a forced swim test (test that exploits the switch of mice caused to swim in an inevitable environment from active escape behavior to a passive state of floating or immobility; in this test, depressive-like behavior is evaluated by placing the mice in an acrylic cylinder of 20 cm in diameter and 25 cm in height filled with water (water temperature: 25° C.) up to a depth of 15 cm, and measuring a passive floating or immobility time).
Male C57BL/6J mice (8 to 12 weeks old) were acclimatized to a laboratory (illuminance: 200 lx) for 60 minutes. Then, a vehicle (10% DMSO solution; dissolved in saline; n=9), PA-8 (30 mg/kg; n=9) or PA-81004 (30 mg/kg; n=9) was intraperitoneally administered thereto (0.1 mL/10 g). After a lapse of 60 minutes after administration, the mice were forced to swim for 6 minutes, and an immobility time was measured.
The effects of PA-9 and PA-915 on normal mice were evaluated by the forced swim test.
Male C57BL/6J mice (8 to 12 weeks old) were acclimatized to a laboratory (illuminance: 200 lx) for 60 minutes. Then, a vehicle (10% DMSO solution; dissolved in saline; n=10), PA-9 (30 mg/kg; n=9) or PA-915 (30 mg/kg; n=9) was intraperitoneally administered thereto (0.1 mL/10 g). After a lapse of 60 minutes after administration, the mice were forced to swim for 6 minutes, and an immobility time was measured.

The test system of test [3] is normal mice. Description: Open field test in normal mice. The settings on record: normal male C57BL/6J mice, 30 mg/kg i.p., 60 min after administration, 10 min test. The protocol:
The effects of PA-8 and PA-81004 on normal mice were evaluated by an open field test (test to measure spontaneous locomotion in a novel environment by exploiting the properties of mice to do exploratory behavior in such a novel environment, and using a 40 cm×40 cm box of 30 cm in height; spontaneous motor activity is measured from the total distance traveled; in this test, anxiety-like behavior is evaluated by exploiting the properties of mice to prefer to stay near walls and avoid light environments, and measuring a time spent in a center zone (20 cm×20 cm) or the number of entries thereto). Male C57BL/6J mice (8 to 12 weeks old) were acclimatized to a laboratory (illuminance: 40 lx) for 60 minutes. Then, a vehicle (10% DMSO solution; dissolved in saline; n=11), PA-8 (30 mg/kg; n=9) or PA-81004 (30 mg/kg; n=12) was intraperitoneally administered thereto (0.1 mL/10 g). After a lapse of 60 minutes after administration, the test was conducted for 10 minutes. The results are shown in FIG. 1 (A: total distance traveled, B: the number of center zone entries, C: time spent in the center zone). The effects of PA-9 and PA-915 on normal mice were evaluated by the open field test. Male C57BL/6J mice (8 to 12 weeks old) were acclimatized to a laboratory (illuminance: 40 lx) for 60 minutes. Then, a vehicle (10% DMSO solution; dissolved in saline; n=10), PA-9 (30 mg/kg; n=11) or PA-915 (30 mg/kg; n=10) was intraperitoneally administered thereto (0.1 mL/10 g). After a lapse of 60 minutes after administration, the test was conducted for 10 minutes. The results are shown in FIG. 5 (A: total distance traveled, B: the number of center zone entries, C: time spent in the center zone).

On to `C=CCOc1ccc(C2CC(=O)Nc3nc(N)[nH]c(=O)c32)cc1OC` (stereo not drawn) [PA-8], for which, in test [1], the “effect on single-restraint stress-induced anxiety-like behavior (light-dark test)” value (“effect” below) is given as “improving effects”. For the same compound, the “pharmacological action in forced swim test (immobility time)” value (“pharmacological action … (immobility time)” below) in the test on normal mice [2] is listed as “no pharmacological action”. In the test on normal mice [3], the “pharmacological action in open field test (total distance traveled, center zone entries, time in center zone)” value is “no pharmacological action”.
As to `O=C(NCCc1c[nH]cn1)C1CC(=O)N(c2n[nH]c3ccccc23)C1` (stereo not drawn) [PA-9], the “effect” value in test [1] is on record as “improving effects”. In addition, in the test with normal mice [2], the “pharmacological action … (immobility time)” value was “no pharmacological action”. In the test with normal mice [3], the “pharmacological action in open field test (total distance traveled, center zone entries, time in center zone)” value is reported as “no pharmacological action”.
Turning to `Nc1nc2c(c(=O)[nH]1)C(c1cccc(OC(F)(F)F)c1)CC(=O)N2` (stereo not drawn) [PA-81004, 2-Amino-5-(3-trifluoromethoxyphenyl)-5,8-dihydro-3H,6H-pyrido[2,3-d]pyrimidine-4,7-dione], the “effect” value in test [1] was “improving effects”. Also, the “pharmacological action … (immobility time)” value in the test on normal mice [2] is given as “no pharmacological action”. The “pharmacological action in open field test (total distance traveled, center zone entries, time in center zone)” value with normal mice [3] is “no pharmacological action”.
